The term EC50 denotes the concentration giving half of the maximal effect.

Each structure is given as a SMILES string. Where two headings read alike, the source gives them in different places.

The experiment has as its system SARS-CoV-2. The experiment in a line: microbe, parasite or virus in culture. The experiment is classed as cell-based. Particulars: read-out: EC50, μM (Hela).
The mark [1] stands for this setting: Severe acute respiratory syndrome coronavirus 2, HeLa-ACE2 cells infected with SARS-CoV-2, 24 h, immunofluorescence of infected cells.

For `CC(C)CCC(=O)N1CC2(CC2)C[C@H]1C(=O)N[C@H](C#N)C[C@@H]1CCNC1=O` [Compound 117, (S)-N-((S)-1-cyano-2-((S)-2-oxopyrrolidin-3-yl)ethyl)-5-(4-methylpentanoyl)-5-azaspiro[2.4]heptane-6-carboxamide], the EC50 under setting [1] is greater than 1 µM.
Still for that read-out and setting: for `CCCCCCC(=O)OCC(=O)[C@H](C[C@@H]1CCNC1=O)NC(=O)[C@H](CC1CCCCC1)NC(=O)C(=O)NC1CCCCC1` [Compound 19, (S)-3-((S)-3-cyclohexyl-2-(2-(cyclohexylamino)-2-oxoacetamido)propanamido)-2-oxo-4-((S)-2-oxopyrrolidin-3-yl)butyl heptanoate] the value was 0.2 to 0.5 µM; for `CC1(C[C@H](NC(=O)C(=O)NC(C)(C)C)C(=O)N[C@@H](C[C@@H]2CCCNC2=O)C(=O)CO)CCC1` [Compound 113, N^1-(tert-butyl)-N^2-((S)-1-(((S)-4-hydroxy-3-oxo-1-((S)-2-oxopiperidin-3-yl)butan-2-yl)amino)-3-(1-methylcyclobutyl)-1-oxopropan-2-yl)oxalamide], 0.05 to 0.2 µM.
On to `Cc1ccccc1NC(=O)C(=O)N[C@@H](CC(C)C)C(=O)N[C@@H](C[C@@H]1CCCNC1=O)C(=O)CO` [Compound 27, N^1-((S)-1-(((S)-4-hydroxy-3-oxo-1-((S)-2-oxopiperidin-3-yl)butan-2-yl)amino)-4-methyl-1-oxopentan-2-yl)-N^2-(o-tolyl)oxalamide], for which the concentration giving a half-maximal response (EC50) under setting [1] was in the range of 0.05 to 0.2 µM.
In the case of `CC(C)C[C@H](NC(=O)C(=O)Nc1ccccc1F)C(=O)N[C@@H](C[C@@H]1CCNC1=O)C(=O)COC(=O)OC(C)C` [Compound 108, (S)-3-((S)-2-(2-((2-fluorophenyl)amino)-2-oxoacetamido)-4-methylpentanamido)-2-oxo-4-((S)-2-oxopyrrolidin-3-yl)butyl isopropyl carbonate], under setting [1], the EC50 lay in the range of 0.05 to 0.2 µM.
Take `CC1(C)[C@@H]2[C@@H](C(=O)N[C@H](C=O)C[C@@H]3CCNC3=O)N(C(=O)COc3ccc(OC(F)(F)F)cc3)C[C@@H]21` [Compound 36, (1R,2S,5S)-6,6-dimethyl-N-((S)-1-oxo-3-((S)-2-oxopyrrolidin-3-yl)propan-2-yl)-3-(2-(4-(trifluoromethoxy)phenoxy)acetyl)-3-azabicyclo[3.1.0]hexane-2-carboxamide]: the EC50 (Severe acute respiratory syndrome coronavirus 2, HeLa-ACE2, 24 h) was 0.2 to 0.5 µM.
As for `CC(C)(C)C[C@H](NC(=O)C(=O)Nc1cccc(C(F)(F)F)c1)C(=O)N[C@@H](CC1CCCNC1=O)C(=O)CO` (stereo partly shown) [Compound 99], the EC50 under setting [1] is less than 0.05 µM.
On the same count and under the same terms, the value for `CC(C)(C)C[C@H](NC(=O)C(=O)Nc1ccccc1OC(F)(F)F)C(=O)N[C@@H](CC1CCCNC1=O)C(=O)CO` (stereo partly shown) [Compound 98] was less than 0.05 µM; that for `CC(C)C[C@H](NC(=O)C(=O)Nc1ccccc1F)C(=O)N[C@H](C=O)C[C@@H]1CCNC1=O` [Compound 39, N^1-(2-fluorophenyl)-N^2-((S)-4-methyl-1-oxo-1-(((S)-1-oxo-3-((S)-2-oxopyrrolidin-3-yl)propan-2-yl)amino)pentan-2-yl)oxalamide] was 0.05 to 0.2 µM.
Same read-out and setting: the value for `COc1ccccc1NC(=O)C(=O)N[C@@H](CC(C)C)C(=O)N[C@@H](C[C@@H]1CCNC1=O)C(=O)CO` [Compound 7] was greater than 1 µM; that for `Cc1ccccc1NC(=O)C(=O)N1C[C@@H]2CCC[C@@H]2[C@H]1C(=O)N[C@H](C[C@@H]1CCCNC1=O)C(=O)CO` [Compound 92, (1S,3aR,6aS)-N-((R)-4-hydroxy-3-oxo-1-((S)-2-oxopiperidin-3-yl)butan-2-yl)-2-(2-oxo-2-(o-tolylamino)acetyl)octahydrocyclopenta [c]pyrrole-1-carboxamide] was greater than 1 µM; that for `CC1(C)[C@@H]2[C@@H](C(=O)N[C@H](C#N)C[C@@H]3CCNC3=O)N(C(=O)C(=O)NC3(C(F)(F)F)CC3)C[C@@H]21` [Compound 65, (1R,2S,5S)-N-((S)-1-cyano-2-((S)-2-oxopyrrolidin-3-yl)ethyl)-6,6-dimethyl-3-(2-oxo-2-((1-(trifluoromethyl)cyclopropyl)amino)acetyl)-3-azabicyclo[3.1.0]hexane-2-carboxamide] was greater than 1 µM.
As to `COc1cccc2[nH]c(C(=O)N[C@@H](CC(C)C)C(=O)N[C@@H](C[C@@H]3CCNC3=O)C(=O)COC(=O)C3CCC(N4CCCCC4)CC3)cc12` (stereo partly drawn) [Compound 124, (S)-3-((S)-2-(4-methoxy-1H-indole-2-carboxamido)-4-methylpentanamido)-2-oxo-4-((S)-2-oxopyrrolidin-3-yl)butyl 4-(piperidin-1-yl)cyclohexane-1-carboxylate], the EC50 under setting [1] was greater than 1 µM.
On the same count and under the same terms, for `CC1(C)[C@@H]2[C@@H](C(=O)N[C@H](C#N)C[C@@H]3CCNC3=O)N(C(=O)C(=O)Nc3ccccc3F)C[C@@H]21` [Compound 59, (1R,2S,5S)-N-((S)-1-cyano-2-((S)-2-oxopyrrolidin-3-yl)ethyl)-3-(2-((2-fluorophenyl)amino)-2-oxoacetyl)-6,6-dimethyl-3-azabicyclo[3.1.0]hexane-2-carboxamide] the value was greater than 1 µM; for `Cc1ccccc1NC(=O)C(=O)N1C[C@@H]2CCC[C@@H]2[C@H]1C(=O)N[C@@H](C[C@@H]1CCCNC1=O)C(=O)CO` [Compound 91, (1S,3aR,6aS)-N-((S)-4-hydroxy-3-oxo-1-((S)-2-oxopiperidin-3-yl)butan-2-yl)-2-(2-oxo-2-(o-tolylamino)acetyl)octahydrocyclopenta [c]pyrrole-1-carboxamide], 0.05 to 0.2 µM; for `CC(C)(C)C[C@H](NC(=O)C(=O)Nc1cccc(OC(F)(F)F)c1)C(=O)N[C@@H](CC1CCCNC1=O)C(=O)CO` (stereo partly shown) [Compound 95], less than 0.05 µM.
Consider `CC(C)C[C@H](NC(=O)C(=O)Nc1ccccc1F)C(=O)N[C@H](C#N)C[C@@H]1CCNC1=O` [Compound 58], for which the EC50 under setting [1] lay within 0.5 to 1 µM.
For `CC(C)C[C@H](NC(=O)C(=O)Nc1ccccc1F)C(=O)N[C@@H](C[C@@H]1CCNC1=O)C(=O)COC(=O)C1CCN(C2CCCCC2)CC1` [Compound 6, (S)-3-((S)-2-(2-((2-fluorophenyl)amino)-2-oxoacetamido)-4-methylpentanamido)-2-oxo-4-((S)-2-oxopyrrolidin-3-yl)butyl 1-cyclohexylpiperidine-4-carboxylate], the EC50 under setting [1] fell in the range of 0.05 to 0.2 µM.
Same read-out and setting: for `CC(C)C[C@H](NC(=O)c1cc(-c2ccccn2)on1)C(=O)N[C@H](C=O)C[C@@H]1CCNC1=O` [Compound 128, N-((S)-4-methyl-1-oxo-1-(((S)-1-oxo-3-((S)-2-oxopyrrolidin-3-yl)propan-2-yl)amino)pentan-2-yl)-5-(pyridin-2-yl)isoxazole-3-carboxamide] the value was greater than 1 µM; for `O=C[C@H](C[C@@H]1CCNC1=O)NC(=O)[C@H](CC1CCCCC1)NC(=O)C(=O)Nc1ccccc1F` [Compound 40, N^1-((S)-3-cyclohexyl-1-oxo-1-(((S)-1-oxo-3-((S)-2-oxopyrrolidin-3-yl)propan-2-yl)amino)propan-2-yl)-N^2-(2-fluorophenyl)oxalamide], 0.05 to 0.2 µM.
On to `CC(C)(NC(=O)C(=O)N1C[C@@H]2CCC[C@@H]2[C@H]1C(=O)N[C@H](C=O)C[C@@H]1CCCNC1=O)C(F)(F)F` [Compound 47, (1S,3aR,6aS)-2-(2-oxo-2-((1,1,1-trifluoro-2-methylpropan-2-yl)amino)acetyl)-N-((S)-1-oxo-3-((S)-2-oxopiperidin-3-yl)propan-2-yl)octahydrocyclopenta[c]pyrrole-1-carboxamide], for which the EC50 under setting [1] fell in the range of 0.5 to 1 µM.
The same measure, in the same setting: for `CC(C)C[C@H](NC(=O)c1cc(-c2ccccc2F)on1)C(=O)N[C@H](C=O)C[C@@H]1CCCNC1=O` [Compound 126, 5-(2-fluorophenyl)-N-((S)-4-methyl-1-oxo-1-(((S)-1-oxo-3-((S)-2-oxopiperidin-3-yl)propan-2-yl)amino)pentan-2-yl)isoxazole-3-carboxamide] the value was 0.05 to 0.2 µM; for `CCCCCCC(=O)OCC(=O)[C@H](C[C@@H]1CCNC1=O)NC(=O)[C@H](CC(C)C)NC(=O)c1cc2ccccc2[nH]1` [Compound 118, (S)-3-((S)-2-(1H-indole-2-carboxamido)-4-methylpentanamido)-2-oxo-4-((S)-2-oxopyrrolidin-3-yl)butyl heptanoate], 0.05 to 0.2 µM.
The same measure, in the same setting: the value for `CC(C)C[C@H](NC(=O)C(=O)NC1CCCCC1)C(=O)N[C@H](C=O)C[C@@H]1CCNC1=O` [Compound 42, N^1-cyclohexyl-N^2-((S)-4-methyl-1-oxo-1-(((S)-1-oxo-3-((S)-2-oxopyrrolidin-3-yl)propan-2-yl)amino)pentan-2-yl)oxalamide] was 0.5 to 1 µM; that for `Cc1cccc(C)c1NC(=O)C(=O)N[C@@H](CC(C)C)C(=O)N[C@@H](C[C@@H]1CCNC1=O)C(=O)COC(=O)C(=O)c1ccccc1` [Compound 11, (S)-3-((S)-2-(2-((2,6-dimethylphenyl)amino)-2-oxoacetamido)-4-methylpentanamido)-2-oxo-4-((S)-2-oxopyrrolidin-3-yl)butyl 2-oxo-2-phenylacetate] was 0.05 to 0.2 µM.
On to `CC(=O)OCC(=O)[C@H](C[C@@H]1CCCNC1=O)NC(=O)[C@H](CC(C)C)NC(=O)C(=O)Nc1ccccc1F` [Compound 105, (S)-3-((S)-2-(2-((2-fluorophenyl)amino)-2-oxoacetamido)-4-methylpentanamido)-2-oxo-4-((S)-2-oxopiperidin-3-yl)butyl acetate], for which the EC50 under setting [1] is 0.05 to 0.2 µM.
Still for that read-out and setting: for `CC(C)C[C@H](NC(=O)C(=O)NC1(C)CC1)C(=O)N[C@@H](C[C@@H]1CCCNC1=O)C(=O)CO` [Compound 29, N^1-((S)-1-(((S)-4-hydroxy-3-oxo-1-((S)-2-oxopiperidin-3-yl)butan-2-yl)amino)-4-methyl-1-oxopentan-2-yl)-N^2-(1-methylcyclopropyl)oxalamide] the value was greater than 1 µM; for `Cc1cccc(C)c1NC(=O)C(=O)N[C@@H](CC(C)C)C(=O)N[C@@H](C[C@@H]1CCNC1=O)C(=O)CO` [Compound 12, N^1-(2,6-dimethylphenyl)-N^2-((S)-1-(((S)-4-hydroxy-3-oxo-1-((S)-2-oxopyrrolidin-3-yl)butan-2-yl)amino)-4-methyl-1-oxopentan-2-yl)oxalamide], greater than 1 µM.

Values taken from patent US20230033285A1, “Protease Inhibitors for Treatment of Coronavirus Infections” (The Scripps Research Institute, priority 2021, published 2023).
